Experimental data published in patent US9315482B2, “Derivatives useful as antiviral agents” (priority 2010, dated 2016).
Like-named read-outs stand apart in the source and are kept apart here.

Experiments:
[1] = tested on: HEK-293T cells
[2] = Metabolic stability over human liver microsomes; type: in vitro ADME; conditions: human liver microsomes 0.5 mg/mL, 1 mM NADPH, 2.5 μM compound, 37 °C
Procedure: The metabolic stability of compounds DD771 and GAC50 has been measured over human liver microsomes
Incubation (n=2) • A solution comprising each compound is prepared at a concentration of 1 mM in DMSO. • Said solution is diluted 1/100 in a phosphate buffer containing 0.5 mg/mL of human liver microsomes, 1 mM NADPH and 5 mM MgCl2.
The final concentration of each compound in the assay is 2.5 μM (0.25% de DMSO). • After homogenization (30 s), 50 μL are taken and mixed to 50 μL acetonitrile in order to precipitate the proteins present in the medium and to solubilise the compound. • The mixture is vortexed during 3 min then sonicated during 3 min and finally centrifuged during 10 min at 15 000 g and 4° C. • The same treatment is done at times 15, 30, 45 and 60 minutes. • The supernatants are injected and analysed by LC-MS/MS following standard method. • In parallel, incubation is carried out and in duplicate by substituting the co-factor NADPH by an equivalent buffer volume. • A sample is taken at t=60 min only.
Analyse LC-MS/MS: • All the samples are analysed by UHPLC coupled to a triple quadruple Shimadzu LC-MS 3080.
Calculations: • Half life: […] • Intrinsec clearance: CLint=V×ln2/t1/2
k: disappearance rate constant (min^−1)
V=incubation volume/protein mass (μL/mg)

[3] = tested on: measles virus (MV); experiment: Inhibition of measles virus replication in HEK-293T cells, recombinant measles virus expressing luciferase (MV-Luc); conditions: for in vitro replication of the measles virus (MV) (luciferase activity) / in vitro replication of measles virus (MV) (luciferase activity): MV-Luc; for in vitro replication of measles virus (MV) (luciferase activity): Example 37, HEK-293T cells, FIG. 11B; for in vitro replication of measles virus (luciferase activity): Example 32, HEK-293T cells, 1 M.O.I., 20, 10, 5 μg/ml, FIG. 6; for in vitro replication of measles virus (luciferase activity) / in vitro replication of measles virus expressing luciferase: 48 h; for in vitro replication of measles virus expressing luciferase: Example 33, HEK-293T cells, FIG. 7
[4] = tested on: RSV A2; experiment: Inhibition of human respiratory syncytial virus in MRC5 cells, flow cytometry (RSV A2); type: cell-based; conditions: M.O.I of 1, 20, 10 μg/ml, 48 h, FIG. 4
Procedure: (§1) After 24 h, cell culture medium was removed, and cells were incubated for at 37° C. in the presence RSV A2 or RSV B1 at a M.O.I of 1. […] After 48 h, cells were harvested, treated with Cytofix/Cytoperm fixation/permeabilization solution (Becton-Dickinson), and stained with anti-H antibodies (ab20391, Abeam) to detect the virus glycoprotein. The percentage of infected cells was determined by flow cytometry analysis. Interferon beta (IFN-β) was used as a reference.

[5] = tested on: ISRE-luciferase construct; experiment: Stimulation of the ISRE-luciferase construct; type: cell-based; conditions: selection screen
[6] = tested on: West-Nile virus (WNV); experiment: Inhibition of West-Nile virus (WNV) in HEK-293T cells, glycoprotein immunostaining; conditions: M.O.I.=1, compounds at 5 μg/ml, FIG. 1
[7] = tested on: herpes simplex virus 2 (HSV2); experiment: Antiviral activity against herpes simplex virus 2; type: cell-based; conditions: DNA virus
[8] = tested on: human coronavirus 229E (229E); experiment: Inhibition of human coronavirus 229E in MRC5 cells, spike glycoprotein immunostaining; conditions: M.O.I.=0.01, compounds at 20 μg/ml, FIG. 1
[9] = tested on: human parainfluenza virus type 3 (hPIV3); experiment: Inhibition of human parainfluenza virus type 3 in HEK-293T cells, glycoprotein immunostaining; type: cell-based; conditions: 1 M.O.I., 2.5, 5, 10, 20 μg/ml, 48 h, FIG. 3
Description: Culture medium was removed, and cells were fixed in 90% acetone. Infected cells were stained with a FITC-conjugated monoclonal antibody (17-038; Argene) to detect the virus glycoprotein (green fluorescence). Cells were counterstained with Evans blue (red fluorescence).

[10] = tested on: dengue virus (serotype 4); experiment: Inhibition of dengue virus replication in HEK-293T cells, glycoprotein immunostaining; type: cell-based; conditions: 0.1 M.O.I., 5, 10, 20 μg/ml, 72 h, FIG. 2
Description: Culture medium was removed, and cells were fixed in 90% acetone. Finally, infected cells were stained for dengue virus glycoprotein expression using a 1/1000 dilution of a specific antibody (clone 1H10-6; Millipore) in PBS+5% goat serum.

[11] = tested on: RSV B1; experiment: Inhibition of human respiratory syncytial virus in MRC5 cells, flow cytometry (RSV B1); type: cell-based; conditions: M.O.I of 1, 20, 10 μg/ml, 48 h, FIG. 4
Procedure: as §1

[12] = tested on: herpes simplex virus 1 (HSV1); experiment: Antiviral activity against herpes simplex virus 1; type: cell-based; conditions: DNA virus
[13] = tested on: HEK-293T cells; experiment: Cellular toxicity in HEK-293T cells (intracellular ATP, CellTiter-Glo); conditions: for cellular toxicity (intracellular ATP, CellTiter-Glo): HEK-293T cells, FIG. 12C
[14] = tested on: RNA viruses; experiment: Antiviral activity against nine RNA viruses (summary); conditions: 2.5 to 20 μg/ml
[15] = tested on: coxsackievirus B3; experiment: Inhibition of coxsackievirus B3 in HEK-293T cells, virus titers by TCID50; type: cell-based; conditions: 0.1 M.O.I., 10 μg/ml, 24 h, FIG. 5
Procedure: Finally, supernatants were harvested, and virus titers were determined by TCID50 (Tissue Culture Infecting Dose) on vera cells.

[16] = Example 36, HEK-293T cells, 24 hours, FIG. 10
[17] = Example 34, HEK-293T cells, 48 hours, FIG. 8

CC1(C)CC(=O)c2c(-c3cccc(Cl)c3)coc2C1
melting point: 104 to 105 °C

COc1ccc(Cl)cc1-c1coc2c1C(=O)CCC2
melting point: 136 to 137 °C

COc1ccc(Cl)cc1C1C2=C(CCCC2=O)OC1[N+](=O)[O-] (centres unmarked)
melting point: 171 to 172 °C

O=C1CCCc2occ(-c3cccc(Br)c3)c21
melting point: 106 to 107 °C

O=C1CCCc2occ(-c3cccc(F)c3)c21
melting point: 65 to 66 °C

O=C1CCCc2occ(-c3ccc(Cl)cc3)c21
melting point: 104 to 105 °C

O=C1CCCc2occ(-c3ccccc3Cl)c21
melting point: 147 to 148 °C

O=C1CCCC2=C1C(c1ccccc1Cl)C([N+](=O)[O-])O2 (centres unmarked)
melting point: 162 to 163 °C

COc1cccc(-c2coc3c2C(=O)CCC3)c1
melting point: 79 to 80 °C

O=C1CCCc2occ(-c3cc(Cl)cc(Cl)c3)c21
melting point: 105 to 106 °C

O=C1CCCc2occ(-c3cccc([N+](=O)[O-])c3)c21
melting point: 94 to 95 °C

CC1CC(=O)c2c(-c3cccc(Cl)c3)coc2C1 (centres unmarked)
melting point: 121 to 122 °C

ON=C1CCCc2occ(-c3cccc(Cl)c3)c21
melting point: 157 to 158 °C

COc1cc(-c2coc3c2C(=O)CCC3)cc(OC)c1OC
melting point: 140 to 141 °C

O=C1CCCc2occ(-c3ccc(Cl)c(Cl)c3)c21
melting point: 122 to 123 °C

CC(=O)C1=C(C)OC([N+](=O)[O-])C1c1cccc(Cl)c1 (centres unmarked)
melting point: 84 to 85 °C

3-(1H-5-chloroindol-3-yl)-2-nitro-2,3-dihydrofuro[3,2-c]chromen-4-one [DD771]
cellular toxicity (intracellular ATP, CellTiter-Glo) [1]: acceptable cytotoxicity | Half life [2]: No significative metabolism | Intrinsic Clearance [2]: No significative metabolism | in vitro replication of the measles virus (MV) (luciferase activity) [3, 16]: blocked | in vitro replication of measles virus (MV) (luciferase activity) ([3]; 24 hours): blocked

3-(1H-5-fluoroindol-3-yl)-2-nitro-2,3-dihydrofuro[3,2-c]chromen-4-one [DD776]
in vitro replication of the measles virus (MV) (luciferase activity) [3, 16]: blocked

3-(1H-5-methylindol-3-yl)-2-nitro-2,3-dihydrofuro[3,2-c]chromen-4-one [DD778]
in vitro replication of the measles virus (MV) (luciferase activity) [3, 16]: blocked

O=c1oc2ccccc2c2c1C(c1c[nH]c3ccccc13)C([N+](=O)[O-])O2 (centres unmarked) [Example 123-G05, 3-(1H-Indol-3-yl)-2-nitro-2,3-dihydrofuro[3,2-c]chromen-4-one]
in vitro replication of hRSV serotype A2 (percentage of infected cells) [4]: blocked | ability to stimulate the ISRE-luciferase construct [5]: ability to stimulate the ISRE-luciferase construct | in vitro replication of WNV (glycoprotein expression by immunostaining) [6]: blocked | cytotoxic effects on HEK-293T cells [1]: absence of cytotoxic effects | effects against HSV2 [7]: no effects | in vitro replication of 229E (spike glycoprotein expression by immunostaining) [8]: blocked | in vitro replication of human parainfluenza virus type 3 [9]: blocked | in vitro replication of dengue virus (serotype 4) [10]: blocked | in vitro replication of hRSV serotype B1 (percentage of infected cells) [11]: blocked | in vitro replication of measles virus (luciferase activity) [3]: blocked | effects against HSV1 [12]: no effects | cellular toxicity (intracellular ATP, CellTiter-Glo) [13]: acceptable cytotoxicity | melting point: 248 to 250 °C (dec.) | cytopathic effects at concentrations blocking RNA virus replication [14]: no detectable cytopathic effects | in vitro production of coxsackievirus B3 (virus titers by TCID50) [15]: blocked

O=C1CCCc2occ(-c3cccc(Cl)c3)c21 [Example 129-G03, 3-(3-chlorophenyl)-6,7-dihydro-5H-benzofuran-4-one]
in vitro replication of hRSV serotype A2 (percentage of infected cells) [4]: blocked | ability to stimulate the ISRE-luciferase construct [5]: ability to stimulate the ISRE-luciferase construct | in vitro replication of WNV (glycoprotein expression by immunostaining) [6]: blocked | effects against HSV2 [7]: no effects | in vitro replication of 229E (spike glycoprotein expression by immunostaining) [8]: blocked | in vitro replication of human parainfluenza virus type 3 [9]: blocked | in vitro replication of dengue virus (serotype 4) [10]: blocked | in vitro replication of hRSV serotype B1 (percentage of infected cells) [11]: blocked | in vitro replication of measles virus (luciferase activity) [3]: blocked | in vitro replication of measles virus expressing luciferase [3]: blocked | in vitro replication of the measles virus (MV) (luciferase activity) [3, 17]: blocked | in vitro replication of the measles virus (MV) (luciferase activity) [3, 16]: blocked | in vitro replication of measles virus (MV) (luciferase activity) ([3]; 24 hours): blocked | effects against HSV1 [12]: no effects | cellular toxicity (intracellular ATP, CellTiter-Glo) [13]: acceptable cytotoxicity | cytotoxic effects on HEK-293T cells ([13]; selection screen): absence of cytotoxic effects | melting point: 87 to 88 °C | cytopathic effects at concentrations blocking RNA virus replication [14]: no detectable cytopathic effects | in vitro production of coxsackievirus B3 (virus titers by TCID50) [15]: blocked

O=C1CCCc2occ(-c3cccc(I)c3)c21 [GAC25, 3-(3-iodophenyl)-6,7-dihydro-5H-benzofuran-4-one]
in vitro replication of measles virus expressing luciferase [3]: blocked | in vitro replication of the measles virus (MV) (luciferase activity) [3, 17]: blocked | melting point: 135 to 136 °C

C=Cc1cccc(-c2coc3c2C(=O)CCC3)c1 [GAC50, 3-(3-ethenylphenyl)-6,7-dihydro-5H-benzofuran-4-one]
half-life at 2.5 μM [2]: 11.3 min | microsomal CLint at 2.5 μM ([2]; read-out: Intrinsic Clearance): 49.1 µL/min/mg | in vitro replication of the measles virus (MV) (luciferase activity) [3, 17]: blocked | in vitro replication of measles virus (MV) (luciferase activity) ([3]; 24 hours): blocked | melting point: 88 to 89 °C
